Results as given in article PMC8496750, “Identification of the organic anion transporting polypeptides responsible for the hepatic uptake of the major metabolite of epyrifenacil, S‐3100‐CA, in mice” (Pharmacology Research & Perspectives, 2021).

What was measured:
human OATP1B3 = target: T1, human OATP1B3 (Homo sapiens, UniProt Q9NPD5); experiment: Uptake assay for radiolabeled substrates, human OATP1B3 expressing 293FT cells; type: in vitro ADME; conditions: 10‐min incubation
T1 construct: expressed in transfected cells; host or cells: 293FT cells
T1 sequence (Q9NPD5 1-702): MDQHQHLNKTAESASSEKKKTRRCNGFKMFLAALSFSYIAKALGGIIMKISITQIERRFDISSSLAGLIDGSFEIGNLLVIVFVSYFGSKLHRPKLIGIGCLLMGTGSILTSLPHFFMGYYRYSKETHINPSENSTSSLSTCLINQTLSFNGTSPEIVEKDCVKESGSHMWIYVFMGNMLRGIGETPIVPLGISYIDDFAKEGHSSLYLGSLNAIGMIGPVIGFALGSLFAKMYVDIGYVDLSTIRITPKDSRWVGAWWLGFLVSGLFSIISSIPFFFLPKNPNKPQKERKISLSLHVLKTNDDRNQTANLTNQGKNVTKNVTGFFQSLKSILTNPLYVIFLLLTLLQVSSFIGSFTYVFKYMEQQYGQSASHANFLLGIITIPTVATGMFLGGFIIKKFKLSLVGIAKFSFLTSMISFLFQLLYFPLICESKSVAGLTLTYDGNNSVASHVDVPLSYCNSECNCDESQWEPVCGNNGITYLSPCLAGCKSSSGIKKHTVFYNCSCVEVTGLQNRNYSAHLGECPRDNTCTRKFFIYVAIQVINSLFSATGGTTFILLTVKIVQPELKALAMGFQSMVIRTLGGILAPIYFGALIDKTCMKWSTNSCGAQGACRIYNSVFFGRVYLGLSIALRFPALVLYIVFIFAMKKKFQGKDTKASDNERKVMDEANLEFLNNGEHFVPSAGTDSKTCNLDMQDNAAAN
Procedure: (§1) 293FT cells were purchased from Thermo Fisher Scientific, Inc.. The cells were grown in Dulbecco's modified Eagle medium (supplemented with 4.5 g/L glucose and 2 mM L‐glutamine) at 37°C, 5% CO2, and 95% humidity. The cells were passaged 3 times per week by harvesting cells using trypsin and plating at a density of 1.0 × 10^4 cells/cm^2 in a 10 cm cell culture plate for maintenance culture. The 293FT cells were detached using trypsin and re‐seeded at a density of 2.5 × 10^4 cells/cm^2 in BioCoat™ Collagen I 6‐well plates (Corning Inc.) for transfection and then treated with 1.2 μg of plasmid vector and 3.2 μl of Lipofectamine™ 2000 Transfection Reagent (Thermo Fisher Scientific, Inc.) according to the manufacturer's instructions. After a 3‐h treatment, the transfection medium was replaced with a fresh cell culture medium and incubated at 37°C with 95% humidity and 5% CO2 until ready for the assay.
(§2) Transport experiments were conducted approximately 24 h post‐transfection. The experiments were initiated by aspirating culture medium and addition of pre‐warmed radiolabeled substrate solution (final 1.0% of acetonitrile or 0.9% of ethanol in phosphate‐buffered saline (PBS[−])) to each well. After a 10‐min incubation, cells were washed twice with 1 ml of ice‐cold PBS(−) and lysed with 700 μl of 1.0 M NaOH for 3 h or more at room temperature. The lysate was transferred to a 1.5‐ml tube, and neutralized with 350 μl of 2.0 M HCl and 350 μl of 2.0% sodium dodecyl sulfate (SDS) solution. From the lysate, 1.0 ml was transferred to a vial containing 10 ml of Emulsifier Scintillator Plus to measure the radioactivity in the LSC. The protein concentration of the cell lysate was also measured using a Pierce™ BCA Protein Assay Kit (Thermo Fisher Scientific, Inc.), which was used to normalize, according to the cell number, the radioactivity in the cell lysate extract. The protein assay was performed in duplicate. Each sample type was assayed in triplicate wells, and each run was performed twice. When the difference in mean uptake between OATP expressing cells and mock cells was more than 2 times, the OATP was judged to be involved in transportation of the substrate. […] Each sample type was assayed in triplicate wells.

rat Oatp1a1 = target: T2, rat Oatp1a1 (Rattus norvegicus, UniProt P46720); experiment: Uptake assay for radiolabeled substrates, rat Oatp1a1 expressing 293FT cells; type: in vitro ADME; conditions: for Ratio of uptake amount relative to the uptake into mock cells: 10‐min incubation
T2 construct: expressed in transfected cells; host or cells: 293FT cells
T2 sequence (P46720 1-670): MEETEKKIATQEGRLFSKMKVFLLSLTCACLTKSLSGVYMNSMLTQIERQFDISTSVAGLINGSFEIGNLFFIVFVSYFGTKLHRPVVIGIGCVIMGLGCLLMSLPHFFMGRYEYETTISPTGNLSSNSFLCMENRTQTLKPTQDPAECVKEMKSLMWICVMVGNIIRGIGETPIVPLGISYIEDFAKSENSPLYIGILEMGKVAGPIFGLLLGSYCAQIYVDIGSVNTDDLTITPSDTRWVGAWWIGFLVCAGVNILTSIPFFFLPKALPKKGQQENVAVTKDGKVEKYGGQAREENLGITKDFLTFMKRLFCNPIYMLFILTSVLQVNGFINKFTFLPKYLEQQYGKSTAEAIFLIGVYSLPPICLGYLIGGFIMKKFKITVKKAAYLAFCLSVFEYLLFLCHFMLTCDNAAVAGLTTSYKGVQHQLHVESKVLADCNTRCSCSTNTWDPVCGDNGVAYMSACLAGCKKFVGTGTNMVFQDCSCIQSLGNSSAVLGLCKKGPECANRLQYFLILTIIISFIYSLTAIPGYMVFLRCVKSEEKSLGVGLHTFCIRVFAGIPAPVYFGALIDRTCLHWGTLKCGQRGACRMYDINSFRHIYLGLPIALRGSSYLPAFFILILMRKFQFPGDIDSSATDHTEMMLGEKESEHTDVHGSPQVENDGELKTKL
Procedure: as §1, §2

Compound | Ratio of uptake amount relative to the uptake into mock cells (human OATP1B3; Run_1) | Ratio of uptake amount relative to the uptake into mock cells (human OATP1B3; Run_2) | Ratio of uptake amount relative to the uptake into mock cells (rat Oatp1a1; Run_1) | Ratio of uptake amount relative to the uptake into mock cells (rat Oatp1a1; Run_2) | Uptake, times higher than in mock cells (rat Oatp1a1)
C[C@]12CC[C@@H]3c4ccc(OS(=O)(=O)O)cc4CC[C@H]3[C@@H]1CCC2=O [E3S, Estrone 3‐sulfate] | 2.7 | 3.3 | 28.6 | 13.6 | –
Cn1c(C(F)(F)F)cc(=O)n(-c2cc(Oc3cccnc3OCC(=O)O)c(Cl)cc2F)c1=O [S‐3100‐CA] | 3.1 | 5.1 | 11.7 | 8.7 | –
C[C@]12CC[C@@H]3c4ccc(O)cc4CC[C@H]3[C@@H]1CC[C@@H]2O[C@@H]1O[C@H](C(=O)O)[C@@H](O)[C@H](O)[C@H]1O [E217βG, Estradiol 17β‐D‐glucuronide] | 19.3 | 12.9 | 59.1 | 65.4 | > 50 times
